In patent US20070053975A1, “Ramipril formulation” (Selamine Limited, priority 2005, published 2007):

How the values were obtained:
[1] = Stability of Ramipril on exposure to stomach juices / acid pH; format: physicochemical
[2] = oral administration, fasted state; cited from earlier work
[3] = cited from earlier work

Row | Compound | Stability on exposure to stomach juices (acid pH) [1] | Time to peak plasma concentrations [2] | Absorption in the presence of food [3]
1 | CCOC(=O)[C@H](CCc1ccccc1)N[C@@H](C)C(=O)N1[C@H](C(=O)O)C[C@@H]2CCC[C@@H]21 [Ramipril, (2S,3aS,6aS)-1[(S)-N-[(S)-1-carboxy-3-phenylpropyl]alanyl]octahydrocyclopenta[b]pyrrole-2-carboxylic acid, 1-ethyl ester] | breaks down | one | –
2 | CC(=O)Oc1ccccc1C(=O)O [aspirin] | – | – | delayed
